Like-named read-outs stand apart in the source and are kept apart here.
Tests used:
Type in all cases: in vivo
[1] = system: ryegrass, Italian (Italian ryegrass, Lolium multiflorum); assay: Test A postemergence; conditions: Lolium multiflorum, post-emergence, 240 h, postemergence; for pest or weed control at 125 g/ha: 125 g ai/ha
Procedure, shortened: (§1)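 Each rating is a visual injury score from 0 to 100 given about 10 d after treatment, judged against untreated controls kept alongside in the greenhouse. In loam soil–sand blend, seeds got a preemergence directed soil spray, while postemergence plants were 2 to 10 cm tall at spraying.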

[2] = system: giant foxtail (Setaria faberii); assay: Test A postemergence; conditions: Setaria faberi, post-emergence, 240 h, postemergence; for pest or weed control at 125 g/ha: 125 g ai/ha
Procedure, shortened: as §1

[3] = system: pigweed (Amaranthus retroflexus); assay: Test A postemergence; conditions: Amaranthus retroflexus, post-emergence, 240 h, postemergence; for pest or weed control at 125 g/ha: 125 g ai/ha
Procedure, shortened: as §1

[4] = system: wheat (Triticum aestivum); assay: Test A postemergence; conditions: Triticum aestivum, post-emergence, 240 h, postemergence; for plant injury at 125 g/ha: 125 g ai/ha
Procedure, shortened: as §1

[5] = system: blackgrass (Alopecurus myosuroides); assay: Test A postemergence; conditions: Alopecurus myosuroides, post-emergence, 240 h, postemergence; for pest or weed control at 125 g/ha: 125 g ai/ha
Procedure, shortened: as §1

[6] = system: ducksalad (Heteranthera limosa); assay: Test B flooded paddy test; conditions: Heteranthera limosa, Flood, 250 g ai/ha, read-out: Ducksalad plant response rating
Procedure, shortened: (§2)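 Rating scale 0–100 (visual, vs untreated controls) after a 13–15 d greenhouse period; application to the flood layer, 3 cm above soil and maintained; plants at 2-leaf stage when treated.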

[7] = system: sedge, umbrella (small-flower umbrella sedge, Cyperus difformis); assay: Test B flooded paddy test; conditions: Cyperus difformis, Flood, 250 g ai/ha, read-out: Sedge, Umbrella plant response rating
Procedure, shortened: as §2

rice (Oryra sativa) = assay: Test B flooded paddy test; conditions: Oryza sativa, Flood, 250 g ai/ha, read-out: Rice plant response rating
Procedure, shortened: as §2

[8] = system: barnyardgrass (Echinochloa crus-galli); assay: Test B flooded paddy test; conditions: Echinochloa crus-galli, Flood, 250 g ai/ha, read-out: Barnyardgrass plant response rating
Procedure, shortened: as §2

[9] = system: ryegrass, Italian (Italian ryegrass, Lolium multiflorum); assay: Test A preemergence; conditions: Lolium multiflorum, pre-emergence, 240 h; for pest or weed control at 125 g/ha: 125 g ai/ha; for pest or weed control at 500 g/ha: 500 g ai/ha
Procedure, shortened: as §1

[10] = system: giant foxtail (Setaria faberii); assay: Test A preemergence; conditions: Setaria faberi, pre-emergence, 240 h; for pest or weed control at 125 g/ha: 125 g ai/ha; for pest or weed control at 500 g/ha: 500 g ai/ha
Procedure, shortened: as §1

[11] = system: ragweed (common ragweed, Ambrosia elatior); assay: Test A preemergence; conditions: Ambrosia artemisiifolia, pre-emergence, 240 h; for pest or weed control at 125 g/ha: 125 g ai/ha; for pest or weed control at 500 g/ha: 500 g ai/ha
Procedure, shortened: as §1

[12] = system: pigweed (Amaranthus retroflexus); assay: Test A preemergence; conditions: Amaranthus retroflexus, pre-emergence, 240 h; for pest or weed control at 125 g/ha: 125 g ai/ha; for pest or weed control at 500 g/ha: 500 g ai/ha
Kochia (Kochia scoparia) = assay: Test A preemergence; conditions: Bassia scoparia, pre-emergence, 240 h; for pest or weed control at 500 g/ha: 500 g ai/ha
Procedure, shortened: as §1

[13] = system: barnyardgrass (Echinochloa crus-galli); assay: Test A preemergence; conditions: Echinochloa crus-galli, pre-emergence, 240 h; for pest or weed control at 125 g/ha: 125 g ai/ha; for pest or weed control at 500 g/ha: 500 g ai/ha
Procedure, shortened: as §1

[14] = scale of 0 to 100 where 0 is no effect and 100 is complete control
[15] = preemergence, 0 to 100 scale where 0 is no effect and 100 is complete control, read-out: Ryegrass, Italian plant response rating
[16] = preemergence, 0 to 100 scale where 0 is no effect and 100 is complete control, read-out: Foxtail, Giant plant response rating
[17] = preemergence, 0 to 100 scale where 0 is no effect and 100 is complete control, read-out: Ragweed plant response rating
[18] = preemergence, 0 to 100 scale where 0 is no effect and 100 is complete control, read-out: Pigweed plant response rating
[19] = preemergence, 0 to 100 scale where 0 is no effect and 100 is complete control, read-out: Barnyardgrass plant response rating
[20] = 0 to 100 scale where 0 is no effect and 100 is complete control

CN1C[C@H](c2cc(F)c(C(F)(F)F)c(F)c2)[C@@H](C(=O)Nc2ccccc2F)C1=O [Compound 899]
pest or weed control at 125 g/ha ([1]; visual injury rating after approximately 10 d, read-out: Ryegrass, Italian plant response rating (0 to 100 scale, 0 no effect, 100 complete control)): 30%
pest or weed control at 125 g/ha ([2]; visual injury rating after approximately 10 d, read-out: Foxtail, Giant plant response rating (0 to 100 scale, 0 no effect, 100 complete control)): 90%
pest or weed control at 125 g/ha ([3]; visual injury rating after approximately 10 d, read-out: Pigweed plant response rating (0 to 100 scale, 0 no effect, 100 complete control)): 0%
plant injury at 125 g/ha ([4]; visual injury rating after approximately 10 d, read-out: Wheat plant response rating (0 to 100 scale, 0 no effect, 100 complete control)): 30%
pest or weed control at 125 g/ha ([5]; visual injury rating after approximately 10 d, read-out: Blackgrass plant response rating (0 to 100 scale, 0 no effect, 100 complete control)): 40%
pest or weed control at 250 g/ha [6, 14]: 10%
pest or weed control at 250 g/ha [7, 14]: 0%
pest or weed control at 250 g/ha (rice (Oryra sativa); [14]): 0%
pest or weed control at 250 g/ha [8, 14]: 55%
pest or weed control at 125 g/ha [9, 15]: 30%
pest or weed control at 500 g/ha ([9]; Preemergence, visual injury vs untreated controls after approximately 10 d, read-out: Ryegrass, Italian plant response rating (0 to 100 scale where 0 is no effect and 100 is complete control)): 20%
pest or weed control at 125 g/ha [10, 16]: 90%
pest or weed control at 500 g/ha ([10]; Preemergence, visual injury vs untreated controls after approximately 10 d, read-out: Foxtail, Giant plant response rating (0 to 100 scale where 0 is no effect and 100 is complete control)): 90%
pest or weed control at 125 g/ha [11, 17]: 20%
pest or weed control at 500 g/ha ([11]; Preemergence, visual injury vs untreated controls after approximately 10 d, read-out: Ragweed plant response rating (0 to 100 scale where 0 is no effect and 100 is complete control)): 60%
pest or weed control at 125 g/ha [12, 18]: 20%
pest or weed control at 500 g/ha ([12]; Preemergence, visual injury vs untreated controls after approximately 10 d, read-out: Pigweed plant response rating (0 to 100 scale where 0 is no effect and 100 is complete control)): 40%
pest or weed control at 500 g/ha (Kochia (Kochia scoparia); Preemergence, visual injury vs untreated controls after approximately 10 d, read-out: Kochia plant response rating (0 to 100 scale where 0 is no effect and 100 is complete control)): 70%
pest or weed control at 125 g/ha [13, 19]: 90%
pest or weed control at 500 g/ha ([13]; Preemergence, visual injury vs untreated controls after approximately 10 d, read-out: Barnyardgrass plant response rating (0 to 100 scale where 0 is no effect and 100 is complete control)): 90%

CN1C[C@H](c2ccc(C#N)cc2)[C@@H](C(=O)Nc2ccc(F)c(F)c2F)C1=O [Compound 1229]
pest or weed control at 125 g/ha ([1]; visual injury vs untreated controls after approx. 10 d, 0 = no effect, 100 = complete control, read-out: Ryegrass, Italian plant response rating (0 to 100 scale)): 0%
pest or weed control at 500 g/ha ([1]; 500 g ai/ha, 0 to 100 scale, 0 is no effect, 100 is complete control, read-out: Ryegrass, Italian plant response rating): 40%
pest or weed control at 125 g/ha ([2]; visual injury vs untreated controls after approx. 10 d, 0 = no effect, 100 = complete control, read-out: Foxtail, Giant plant response rating (0 to 100 scale)): 90%
pest or weed control at 500 g/ha ([2]; 500 g ai/ha, 0 to 100 scale, 0 is no effect, 100 is complete control, read-out: Foxtail, Giant plant response rating): 90%
pest or weed control at 125 g/ha ([3]; visual injury vs untreated controls after approx. 10 d, 0 = no effect, 100 = complete control, read-out: Pigweed plant response rating (0 to 100 scale)): 40%
pest or weed control at 500 g/ha ([3]; 500 g ai/ha, 0 to 100 scale, 0 is no effect, 100 is complete control, read-out: Pigweed plant response rating): 60%
plant injury at 125 g/ha ([4]; visual injury vs untreated controls after approx. 10 d, 0 = no effect, 100 = complete control, read-out: Wheat plant response rating (0 to 100 scale)): 0%
plant injury at 500 g/ha ([4]; 500 g ai/ha, 0 to 100 scale, 0 is no effect, 100 is complete control, read-out: Wheat plant response rating): 50%
pest or weed control at 125 g/ha ([5]; visual injury vs untreated controls after approx. 10 d, 0 = no effect, 100 = complete control, read-out: Blackgrass plant response rating (0 to 100 scale)): 0%
pest or weed control at 500 g/ha ([5]; 500 g ai/ha, 0 to 100 scale, 0 is no effect, 100 is complete control, read-out: Blackgrass plant response rating): 40%
pest or weed control at 250 g/ha [6, 20]: 90%
pest or weed control at 250 g/ha [7, 20]: 0%
pest or weed control at 250 g/ha (rice (Oryra sativa); [20]): 0%
pest or weed control at 250 g/ha [8, 20]: 50%
pest or weed control at 125 g/ha ([9]; preemergence, visual injury rating, 0 to 100 scale where 0 is no effect and 100 is complete control, approximately 10 d, read-out: Ryegrass, Italian plant response rating): 0%
pest or weed control at 500 g/ha [9, 15]: 40%
pest or weed control at 125 g/ha ([10]; preemergence, visual injury rating, 0 to 100 scale where 0 is no effect and 100 is complete control, approximately 10 d, read-out: Foxtail, Giant plant response rating): 100%
pest or weed control at 500 g/ha [10, 16]: 100%
pest or weed control at 125 g/ha ([11]; preemergence, visual injury rating, 0 to 100 scale where 0 is no effect and 100 is complete control, approximately 10 d, read-out: Ragweed plant response rating): 60%
pest or weed control at 500 g/ha [11, 17]: 70%
pest or weed control at 125 g/ha ([12]; preemergence, visual injury rating, 0 to 100 scale where 0 is no effect and 100 is complete control, approximately 10 d, read-out: Pigweed plant response rating): 60%
pest or weed control at 500 g/ha [12, 18]: 90%
pest or weed control at 125 g/ha (Kochia (Kochia scoparia); 125 g ai/ha, preemergence, visual injury rating, 0 to 100 scale where 0 is no effect and 100 is complete control, approximately 10 d, read-out: Kochia plant response rating): 90%
pest or weed control at 500 g/ha (Kochia (Kochia scoparia); preemergence, 0 to 100 scale where 0 is no effect and 100 is complete control, read-out: Kochia plant response rating): 90%
pest or weed control at 125 g/ha ([13]; preemergence, visual injury rating, 0 to 100 scale where 0 is no effect and 100 is complete control, approximately 10 d, read-out: Barnyardgrass plant response rating): 90%
pest or weed control at 500 g/ha [13, 19]: 100%
